Results from PMC8179002, “Inhibitors of thiol-mediated uptake” (Chemical Science, 2020).
Read-outs that look alike come from different tables or passages of the source. Bridge positions count the residues as written; N and C are the ends. Peptide text beside a SMILES is read from it.

Key:
[1] = Relative cell viability in HCHT screening (propidium iodide negative nuclei count); type: cell-based; conditions: human, HeLa, read-out: GI50, concentration causing 50% cell growth inhibition
Method: (§1) With COCs 1 and 2 as cell-penetrating reporters, a fully automated, fluorescent microscopy image-based high-content high-throughput (HCHT)[19] inhibitor screening assay was developed. HeLa cells in multiwell plates are incubated with a reporter at constant and inhibitors at varying concentrations and incubation times. Hindered reporter uptake then causes decrease of fluorescence inside of cells (Fig. 3a). Automated data analysis[19] was established to extract average fluorescence intensity per cell and, at the same time, cell viability from propidium iodide negative nuclei count (Fig. 3 and S3–S6 ^†). Standard assay conditions consisted of pre-incubation of HeLa cells with inhibitors for different periods of time, followed by the removal of inhibitors and the addition of reporters, thus excluding possible interactions between the two in the extracellular environment. In alternative co-incubation conditions, inhibitors were not removed before the addition of reporters to allow for eventual interactions between the two.
(§2) To be able to extract the fluorescent integrated intensity information (sum of the intensities of all the pixels included in the mask) from the green channel for live cell only, the image analysis pipeline contains several steps of cell filtering and selection:
(§3) 1) Firstly, PI is used to stain any remaining nuclei of dead cell. In the analysis pipeline, all the “dead” nuclei are detected based on their fluorescent intensity in the PI channel (Figure […]
(§4) Fig. S4 (A) PI positive nuclei mask (fluorescent intensity threshold of 1000). (B) Overlap image of dead nuclei mask and original all cell body mask. (C) Resulting cell mask after removing any cell marked by a dead nucleus, new mask is called “Live Cell”. Scale bar: 50 μm.
(§5) 2) Elimination of non-full cells from the border of the image is performed, to avoid inaccurate fluorescent integrated intensity quantification (fluorescent integrated intensity = sum of intensity of all the pixel of the object) (Figure S5).
(§6) (1 picture or pasted object on this page, not shown here)
(§7) 4.3. HCHT Inhibitor Screening with ETP as Reporter […]
(§8) Relative cell viability (RV) for each condition in the presence of inhibitors were calculated using the count value of living cells by dividing the count value of living cells with addition of reporter 1, Hoechst 33342 and PI, for each set of experiments. Duplicates were performed for each condition. The resulting dependence of the relative cell viability (RVrel) to the concentration of inhibitors (cinhibitor) was plotted and fitted with Equation (S2) to retrieve the concentration causing 50% cell growth inhibition (GI50) value and the Hill coefficient (n).
(§9) RVrel = 1 / (1 + (GI50 / cinhibitor)n) (S2)
(§10) Note: Reporter 1 were not toxic for 1 h at 10 μM.S2 Also in this study, the count value of living cells with addition of reporter 1, Hoechst 33342 and PI is always similar to that of living cells with only addition of Hoechst 33342 and PI.
as §8, with “with” for “in the presence of”, “2,” for “1,”
(§11) Note: Reporter 2 were not toxic for 24 h at 10 μM.S3 Also in this study, the count value of living cells with addition of reporter 2, Hoechst 33342 and PI is always similar to that of living cells with only addition of Hoechst 33342 and PI.
(§12) 4.4.1. Screening with Disulfides as Inhibitors
(§13) 4.4.1.1. Screening with ETP as Inhibitors
(§14) Fig. S35 Automatically analyzed HCHT data showing fluorescence intensity (filled symbols) and relative viability (empty symbols) of HeLa cells after pre-incubation with 3 for 1 h (blue […]

[2] = trans to cis isomer 22; Fig. S46
[3] = tested on: HeLa Kyoto cells; experiment: Relative cell viability in HCHT screening (propidium iodide negative nuclei count); type: cell-based; conditions: HeLa, removal, tinc 0.5 h with 1 (10 µM), read-out: GI50, concentration causing 50% cell growth inhibition
Method: as §1, §2, §3, §4, §5, §6, §7, §8, §9, §10
as §8, with “with” for “in the presence of”, “2,” for “1,”
as §11, §12, §13, §14

[4] = tested on: A549 human lung alveolar basal epithelium cells overexpressing ACE2 and TMPRSS2; conditions: Fig. S44
[5] = tpre 0.5 h, then tco 0.5 h co-incubation of inhibitor and 1 (10 µM)
[6] = tpre 0.5 h, then tco 0.5 h co-incubation of inhibitor and 2 (10 µM)
[7] = tpre 0.5 h with inhibitor, removal, tinc 0.5 h with 1 (10 µM)
[8] = tpre 1 h with inhibitor, removal, tinc 0.5 h with 1 (10 µM)
[9] = tpre 2 h with inhibitor, removal, tinc 0.5 h with 1 (10 µM)
[10] = tpre 4 h with inhibitor, removal, tinc 0.5 h with 1 (10 µM)
[11] = tpre 4 h with inhibitor, removal, tinc 0.5 h with 2 (10 µM)
[12] = tpre 5.5 h with FBS, then tco 0.5 h co-incubation of inhibitor and 1 (10 µM)
[13] = tpre 6 h with FBS, removal, tinc 0.5 h with 2 (10 µM)
[14] = tpre 23.5 h with FBS, then tco 0.5 h co-incubation of inhibitor and 1 (10 µM)
[15] = HeLa Kyoto cells, tpre 0.5 h, then tco 0.5 h co-incubation of inhibitor and 2 (10 µM)
[16] = HeLa Kyoto cells, tpre 0.5 h with inhibitor, removal, tinc 0.5 h with 1 (10 µM)
[17] = HeLa Kyoto cells, tpre 1 h with inhibitor, removal, tinc 0.5 h with 1 (10 µM)
[18] = HeLa Kyoto cells, tpre 1 h with inhibitor, removal, tinc 0.5 h with 2 (10 µM)
[19] = HeLa Kyoto cells, tpre 1.5 h, then tco 0.5 h co-incubation of inhibitor and 2 (10 µM)
[20] = HeLa Kyoto cells, tpre 2 h with inhibitor, removal, tinc 0.5 h with 1 (10 µM)
[21] = HeLa Kyoto cells, tpre 2 h with inhibitor, removal, tinc 0.5 h with 2 (10 µM)
[22] = HeLa Kyoto cells, tpre 4 h with inhibitor, removal, tinc 0.5 h with 2 (10 µM)
[23] = tpre 23.5 h with FBS, then tco 0.5 h co-incubation of inhibitor and 2 (10 µM)
[24] = tpre 1 h with inhibitor, removal, tinc 0.5 h with 2 (10 µM)

Row | SMILES | GI50 [1, 5] | GI50 [1, 6] | GI50 [1, 7] | GI50 [1, 8] | GI50 [1, 9] | GI50 [1, 10] | GI50 [1, 11] | GI50 [1, 12] | GI50 [1, 13] | GI50 [1, 14] | other results
1 | O=C(O)CNC(=O)c1ccc2c(c1)SSSSS2 [compound 6] | > 20 µM | > 20 µM | > 100 µM | ~98 µM | ~45 µM | ~44 µM | ~17 µM | > 20 µM | ~105 µM | > 20 µM | –
2 | [O-][S+]1CC(O)C(O)CS1 (stereo not shown) [compound 17] | > 500 µM | – | – | – | – | – | – | > 1000 µM | – | 450 ± 50 µM | Isomerization [2]: isomerized with time; GI50 ([3]; tpre 1 h with inhibitor): 710 ± 50 µM; GI50 ([3]; tpre 2 h with inhibitor): 730 ± 10 µM; GI50 ([3]; tpre 4 h with inhibitor): ~500 µM
3 | N[C@H]1CSSC[C@@H](C(=O)N[C@@H](CCC(=O)O)C(=O)O)NC(=O)CNC1=O [compound 19] (H-CGCE-OH; disulfide 1-3) | – | – | – | – | – | – | – | – | – | – | GI50 at 1 h [1, 15]: > 0.5 mM; GI50 at 0.5 h [1, 16]: > 2 mM; GI50 at 1 h [1, 17]: > 2 mM; GI50 at 1 h [1, 18]: > 1 mM; GI50 at 2 h [1, 19]: > 0.5 mM; GI50 at 2 h [1, 20]: > 2 mM; GI50 at 2 h [1, 21]: > 1 mM; GI50 at 4 h [1, 22]: > 1 mM
4 | O=C(CN1C(=O)C2SSC1C(=O)N2CCOc1ccccc1)NCC(=O)OC[C@H]1OC(O)[C@H](O)[C@@H](O)[C@@H]1O (stereo partly shown) [compound 7] | – | – | > 100 µM | > 100 µM | > 100 µM | – | > 100 µM | > 100 µM | > 200 µM | > 100 µM | GI50 [1, 23]: > 100 µM
5 | O=S1(=O)C[C@H](O)[C@H](O)CS1 [compound 16] | – | – | – | 1300 ± 490 µM | – | – | > 500 µM | > 1000 µM | – | 490 ± 60 µM | Concentration at which toxicity was detected [4]: 500 µM
6 | CCN1C(=O)C2SSC1C(=O)N2CC(=O)O (stereo not shown) [compound 4] | ~8.4 µM | ~20 µM | > 100 µM | 12.5 ± 0.7 µM | ~9.2 µM | 6.4 ± 0.3 µM | ~4 µM | > 20 µM | – | > 20 µM | GI50 [1, 24]: > 20 µM
7 | CCN1C(=O)C2SSSSC1C(=O)N2CC(=O)O (stereo not shown) [compound 3] | 13.3 ± 0.8 µM | ~20 µM | 34 ± 2.9 µM | 35 ± 4.4 µM | 46.1 ± 4.8 µM | > 50 µM | – | > 50 µM | > 100 µM | > 50 µM | GI50 [1, 24]: > 20 µM; Concentration at which toxicity was detected [4]: 50 µM
8 | O=C(O)CC[C@H](NC(=O)CCCCC1CCSS1(=O)=O)C(=O)O (stereo partly shown) [compound 15] | – | – | > 500 µM | > 500 µM | > 500 µM | – | > 500 µM | > 1000 µM | – | 944 ± 60 µM | GI50 [1, 23]: > 500 µM
9 | O=C(O)CC[C@H](NC(=O)CN1C(=O)C2SSC1C(=O)N2CCOc1ccccc1)C(=O)O (stereo partly shown) [compound 9] | – | – | > 100 µM | > 100 µM | > 100 µM | – | > 100 µM | – | > 200 µM | – | –
10 | N[C@H]1CSSC[C@@H](C(=O)NCC(=O)O)NC(=O)[C@H](CCC(=O)O)NC1=O [compound 18] (H-CECG-OH; disulfide 1-3) | – | – | – | – | – | – | – | – | – | – | GI50 at 1 h ([1]; HeLa Kyoto cells, tpre 0.5 h, then tco 0.5 h co-incubation of inhibitor and 1 (10 µM)): > 0.5 mM; GI50 at 1 h [1, 15]: > 0.5 mM; GI50 at 0.5 h [1, 16]: > 2 mM; GI50 at 1 h [1, 17]: > 2 mM; GI50 at 1 h [1, 18]: > 1 mM; GI50 at 2 h [1, 19]: > 0.5 mM; GI50 at 2 h [1, 20]: > 2 mM; GI50 at 2 h [1, 21]: > 1 mM; GI50 at 4 h [1, 22]: > 1 mM; GI50 at 6 h ([1]; HeLa Kyoto cells, tpre 5.5 h with FBS, then tco 0.5 h co-incubation of inhibitor and 1 (10 µM)): > 1 mM; GI50 at 24 h ([1]; HeLa Kyoto cells, tpre 23.5 h with FBS, then tco 0.5 h co-incubation of inhibitor and 1 (10 µM)): > 1 mM
